# Data reported in patent publication US12090163B2, “Pharmaceutical compositions” (CIPLA LIMITED, priority 2017, dated 2024).
# pEC50: −log10 of the molar value. Structures can show the parent of a compound that is named as a salt.
# Key:
# Assay type in all cases: cell-based
# HIV-1 isolate JV-1083 = experiment: In vitro efficacy against HIV-1 in fresh PBMCs (reverse transcriptase activity in supernatant), isolate JV-1083
# Method: (§1) Fresh human PBMCs, seronegative for HIV and HBV, were isolated from screened donors (Biological Specialty Corporation, Colmar, PA). Cells were pelleted/washed 2-3 times by low speed centrifugation and re-suspension in PBS to remove contaminating platelets. The Leukophoresed blood was then diluted 1:1 with Dulbecco's Phosphate Buffered Saline (DPBS) and layered over 15 mL of Ficoll (GE Healthcare #17-1440-02) in 50 mL centrifuge tube and then centrifuged for 30 minutes at 600×g. Banded PBMCs were gently aspirated from the resulting interface and subsequently washed 2× with PBS by low speed centrifugation. After the final wash, cells were enumerated by tryptan blue exclusion and re-suspended at 1×10^6 cells/mL in RPMI 1640 supplemented with 15% Fetal Bovine Serum (FBS), and 2 mM L-glutamine, 4 μg/mL Phytohemagglutinin (PHA, Sigma). The cells were allowed to incubate for 48-72 hours at 37° C. After incubation, PBMCs were centrifuged and re-suspended in RPMI 1640 with 15% FBS, 2 mM L-glutamine, 100 U/mL penicillin, 100 μg/mL streptomycin, and approximately 100-150 U/mL recombinant human IL-2 (R&D Systems, Inc). IL-2 was included in the culture medium to maintain the cell division initiated by the PHA mitogenic stimulation. PBMCs were maintained in this medium at a concentration of 1-2×10^6 cells/mL with biweekly medium changes until used in the assay protocol. Cells were kept in culture for a maximum of two weeks before being deemed too old for use in assays and discarded. MDMs were depleted from the culture as the result of adherence to the tissue culture flask. […] Pooling (mixing) of mononuclear cells from more than one donor was used to minimize the variability observed between individual donors, which results from quantitative and qualitative differences in HIV infection and overall response to the PHA and IL-2 of primary lymphocyte populations. […]
# HIV-1 isolate 89BZ_167 = experiment: In vitro efficacy against HIV-1 in fresh PBMCs (reverse transcriptase activity in supernatant), isolate 89BZ_167
# Method: as §1, with “C.” for “C. After incubation, PBMCs were centrifuged and re-suspended in RPMI 1640 with 15% FBS, 2 mM L-glutamine, 100 U/mL penicillin, 100 μg/mL streptomycin, and approximately 100-150 U/mL recombinant human IL-2 (R&D Systems, Inc). IL-2 was included in the culture medium to maintain the cell division initiated by the PHA mitogenic stimulation. PBMCs were maintained in this medium at a concentration of 1-2×10^6 cells/mL with biweekly medium changes until used in the assay protocol. Cells were kept in culture for a maximum of two weeks before being deemed too old for use in assays and discarded. MDMs were depleted from the culture as the result of adherence to the tissue culture flask.”
# [1] = Cytotoxicity in HepG2 2.2.15 cells by MTS uptake assay; conditions: human, HepG2 2.2.15 cells (contain the HBV ayw1 genome), same assay plate
# HCV replicon = HCV replicon antiviral evaluation assay
# Method: The subgenomic HCV replicons of genotype 1a (H77 strain), 1b (Coni strain), and 2a (JFH-1 strain), which are Huh7 human hepatoma cell lines that contains an HCV replicon were used.
# The HCV replicon antiviral evaluation assay examines the effects of compounds at six serial dilutions. Human interferon alpha-2b (rIFNα-2b) and/or Sofosbuvir were included in each run as a positive control compound.
# Briefly, the replicon cells were plated at 5,000 cells/well into 96-well plates that were dedicated for the analysis of cell numbers (cytotoxicity) or antiviral activity. On the following day, samples were diluted with assay media and added to the appropriate wells. Cells were processed 72 hours later when the cells were still sub-confluent. For the luciferase endpoint assay, HCV replicon levels were assessed as replicon-derived Luc activity. The concentration of drug that reduces cell viability was assessed by the fluorometric CytoTox-1 cell proliferation assay (Promega), (expressed as cell numbers). For the qRT-PCR/TaqMan assay, total RNA was extracted from the replicon cells using RNeasy 96 kit (Qiagen) according to the manufacturer's protocol. Real-time RTPCR/TaqMan assays was performed to measure copy numbers of the replicon RNA and cellular ribosomal RNA.
smiles,measurement,setting,value
C[C@H](Cn1cnc2c(N)ncnc21)OCP(=O)(OCOC(=O)C(C)(C)C)Oc1ccccc1 (stereo partly drawn) [((((((R)-1-(6-amino-9H-purin-9-yl)propan-2-yl)oxy)methyl)(phenoxy)phosphoryl)oxy)methyl pivalate fumarate],Selectivity Index,"HIV-1 isolate JV-1083; HIV-1 isolate JV-1083, PBMCs",11241
same,pEC50,"HIV-1 isolate JV-1083; Human immunodeficiency virus 1, PBMC, HIV-1 isolate JV-1083, PHA-stimulated fresh human PBMCs, six-seven days",8.61
same,Conclusion: activity against HIV-1,"HIV-1 isolate JV-1083; against the two HIV-1 isolates (JV-1083, 89BZ_167) in PBMCs",potently active
same,Selectivity Index,"HIV-1 isolate 89BZ_167; HIV-1 isolate 89BZ_167, PBMCs",1333
same,pEC50,"HIV-1 isolate 89BZ_167; Human immunodeficiency virus 1, PBMC, HIV-1 isolate 89BZ_167, PHA-stimulated fresh human PBMCs, six-seven days",7.68
same,CC50 at 6 days,[1],> 100 µM
same,Selectivity Index,"HCV replicon; CC50/EC50, HCV replicon cells",5.98
same,Conclusion: activity against HCV,HCV replicon; HCV replicon assay,active
same,pEC50,"HCV replicon; Hepatitis C virus, concentration inhibiting HCV replicon by 50%, 72 hours, genotype not given",5.08
